Measurements reported in paper PMC10056643, “New Bioactive Peptides from the Mediterranean Seagrass Posidonia oceanica (L.) Delile and Their Impact on Antimicrobial Activity and Apoptosis of Human Cancer Cells” (International Journal of Molecular Sciences, 2023).
Read-outs that look alike come from different tables or passages of the source. Where no end group is shown, it is not given here.

Experiments:
HepG2 cells = format: cell-based, human; settings: for Activity on HepG2 cells (in words): HepG2, discussion statement; for IC50 (cell viability): 24 h
Description: HepG2 human hepatic cancer cells (taken from laboratory stocks) were routinely grown in high glucose–DMEM medium with the addition of 10% fetal calf serum (Life Technologies, Carlsbad, CA, USA) and antibiotics (100 U/mL penicillin and 100 μg/mL streptomycin; Life Technologies), at 37 °C in a 5% CO2 atmosphere.
For IC50 determination, cells undergoing exponential growth were seeded at a concentration of 5500/well in 96-well plates, allowed to adhere overnight, and then grown in control conditions or exposed to different concentrations of natural and synthetic peptides for 24 h. The number of viable cells was determined through the trypan blue exclusion test. The cell viability ratio in each experimental condition was determined as the ratio between unstained treated cells and controls, and the half maximal inhibitory concentrations (IC50) for peptides #7, #3d, and #7d were evaluated using the CompuSyn software.

E. coli ATCC 25922 = format: cell-based, Escherichia coli
Description: (§1) Four bacterial strains and one fungal strain were employed in this study: S. aureus ATCC 25923, P. aeruginosa ATCC 15442, E. coli ATCC 25922, E. faecalis ATCC 29212, and C. albicans ATCC 10231. The media used for microbiological assays were Tryptic Soy Broth (TSB, Sigma-Aldrich, Merck-Life Sciences S.r.l., Milan, Italy), Tryptic Soy Agar (TSA), Mueller Hinton II (Sigma-Aldrich, Merck-Life Sciences S.r.l., Milan, Italy), and Sabouraud medium for the yeast strain.
(§2) Polypeptide-enriched extracts derived from green leaves and rhizomes of P. oceanica were lyophilized and resuspended in ultrapure water in order to obtain protein concentrations of 30 μg/mL and 26 μg/mL, respectively. The MIC values of the extracts were assessed through a previously described micro-method based on serial dilution (1:2) of the extracts, using Mueller Hinton II (MH II) and Sabouraud (for C. albicans) media in 96-well microplates and starting from 50% v/v to 1.5% v/v for a final volume equal to 100 μL. A microbial suspension of 10 μL (5 × 10^6 CFU/mL) derived from a bacterial culture grown at 37 °C for 24 h on Tryptic Soy Agar (TSA) in 5 mL of NaCl 0.9%, whose turbidity was similar to the 0.5 McFarland standard, was added to a 96-well plate followed by incubation at 37 °C for 24 h. […] In addition, a positive growth control (broth with bacterial inoculum to compare the growth of the cells with samples) and a sample control (extract solution without bacterial inoculum to verify the absorbance of the samples at various tested concentrations) were also included.
(§3) The same procedure and media were also used to evaluate the antimicrobial activity of synthetic peptides #2, #3, #5, and #7, as well as of their derivatives. In particular, the synthetic peptides and their derivatives were dissolved in ultrapure water with the goal of achieving a stock solution of 5 mg/mL. Work solutions of 250 μg/mL of each synthetic peptides and derivatives were prepared in MH II and Sabouraud, being tested in 96-well microplates after serial dilution (1:2). Each assay was performed in triplicate.

C. albicans ATCC 10231 = format: cell-based, Candida albicans
Description: as §1, §2, §3

E. faecalis ATCC 29212 = format: cell-based, Enterococcus faecalis
Description: as §1, §2, §3

P. aeruginosa ATCC 15442 [1] = format: cell-based, Pseudomonas aeruginosa
Description: as §1, §2, §3

S. aureus ATCC 25923 = format: cell-based, Staphylococcus aureus
Description: as §1, §2, §3

P. aeruginosa ATCC 15442 [2] = format: cell-based, Pseudomonas aeruginosa; settings: crystal violet
Description: Sub-MIC concentrations of natural extracts and synthetic peptides were tested to evaluate their interference with the growth as a sessile community of S. aureus ATCC 25923, P. aeruginosa ATCC 15442 and C. albicans ATCC 10231, as previously reported. Bacterial strains or fungal strains were incubated in test tubes containing TSB or Sabouraud (5 mL) and 2% v/v glucose at 37 °C for 24 h. Then, a 2.5 μL microbial suspension was added to each well, containing 200 μL of TSB or Sabouraud broth with 2% w/v glucose.. Aliquots of sub-MIC concentrations of natural extracts of P. oceanica or of chemically synthesized peptides were directly added to the wells, and the plates were incubated at 37 °C for 24 h. After biofilm formation, the wells were washed twice with sterile NaCl 0.9% and stained with 200 μL of 0.1% v/v crystal violet solution for 30 min at 37 °C [70]. Excess solution was discharged, and the plates were washed twice using tap water. Lastly, each stained well was processed by adding 200 μL of ethanol to solubilize the dye. The OD was read at a wavelength of 600 nm using a microplate reader (Glomax®-Multi Detection System, Promega s.r.l., Milan, Italy). […] The percentage of biofilm inhibition formation was determined through the following formula: % Inhibition = [(OD growth − OD sample)/OD growth control] × 100. […]

[3] = chemically synthesized peptide, maximum tested concentration 250 μg/mL, Mueller Hinton II, triplicate

Sequence	MIC (E. coli ATCC 25922; ATCC 25922, 24 h) [µg/mL]	MIC (C. albicans ATCC 10231; ATCC 10231, 24 h) [µg/mL]	MIC (E. faecalis ATCC 29212; ATCC 29212, 24 h) [µg/mL]	IC50 (cell viability) (HepG2 cells) [µg/mL]	MIC (P. aeruginosa ATCC 15442 [1]; ATCC 15442, 24 h) [µg/mL]	MIC (S. aureus ATCC 25923; ATCC 25923, 24 h) [µg/mL]	further results
EETFHGVL [Peptide #2, natural peptide EETFHGVL from green leaves extract, chemically synthesized]	–	–	–	–	–	–	Activity on HepG2 cells (in words) (HepG2 cells): lack of activity
GEFALCKATK [Peptide #7d]	> 250	> 250	> 250	0.108	> 250	> 250	–
GEFALCSAKT [Peptide #7]	–	–	–	0.329	–	–	–
IVAKVGSA [5d]	–	–	–	–	–	–	MIC (E. coli ATCC 25922; [3]): > 250 µg/mL; MIC (C. albicans ATCC 10231; chemically synthesized peptide, maximum tested concentration 250 μg/mL, Sabouraud, triplicate): > 250 µg/mL; MIC (E. faecalis ATCC 29212; [3]): > 250 µg/mL; MIC (P. aeruginosa ATCC 15442 [1]; [3]): > 250 µg/mL; Percentage of inhibition of biofilm formation (P. aeruginosa ATCC 15442 [2]; maximum tested concentration 200 μg/mL): 57.2%; BIC50 (P. aeruginosa ATCC 15442 [2]; peptide, AAT Bioquest IC50 calculator): 70.7 µg/mL; MIC (S. aureus ATCC 25923; [3]): > 250 µg/mL
IVASVGSA [Peptide #5, natural peptide IVASVGSA from rhizome extract, chemically synthesized]	–	–	–	–	–	–	Activity on HepG2 cells (in words) (HepG2 cells): inability of peptide #5 to exert any biological role
RKTFWGVL [Peptide #2d]	> 250	> 250	> 250	–	> 250	> 250	–
WVVRLNAPGKK [Peptide #3d]	> 250	> 250	> 250	0.41	> 250	> 250	–
